Assay results: ChEMBL document CHEMBL1156824, “Physicochemical space for optimum oral bioavailability: contribution of human intestinal absorption and first-pass elimination” (J Med Chem, 2010)

What was measured:
Homo sapiens [1] = assay: Oral bioavailability in human; settings: in vivo
Homo sapiens [2] = species: Homo sapiens; assay: Hepatic clearance in human; settings: in vivo
clinical = settings: human, in vivo

SMILES | F_fraction (Homo sapiens [1]) | CL (Homo sapiens [2]) [mL/min/kg] | CL renal (clinical) [mL/min/kg]
CC(C)c1nc(N(C)S(C)(=O)=O)nc(-c2ccc(F)cc2)c1/C=C/[C@@H](O)C[C@@H](O)CC(=O)O [ROSUVASTATIN] | 0.2 | 7.7 | –
CC[C@H]1OC(=O)[C@H](C)[C@@H](O[C@H]2C[C@@](C)(OC)[C@@H](O)[C@H](C)O2)[C@H](C)[C@@H](O[C@@H]2O[C@H](C)C[C@H](N(C)C)[C@H]2O)[C@](C)(O)C[C@@H](C)CN(C)[C@H](C)[C@@H](O)[C@]1(C)O [AZITHROMYCIN] | 0.34 | 9.6 | 0.5
COc1cccc2c1C(=O)c1c(O)c3c(c(O)c1C2=O)C[C@@](O)(C(=O)CO)C[C@@H]3O[C@H]1C[C@H](N)[C@H](O)[C@H](C)O1 [DOXORUBICIN] | 0.05 | 13.2 | –
COc1ccc(C(=O)Nc2ccccc2CCC2CCCCN2C)cc1 (stereo not given) [ENCAINIDE] | 0.3 | 12.2 | 0.8
COc1ccc(C(CN(C)C)C2(O)CCCCC2)cc1 (stereo not given) [VENLAFAXINE] | 0.42 | 13.4 | 0.6
Cc1nc2n(c(=O)c1CCN1CCC(c3noc4cc(F)ccc34)CC1)CCCC2 [RISPERIDONE] | 0.66 | – | 0.2
CCc1nn(CCCN2CCN(c3cccc(Cl)c3)CC2)c(=O)n1CCOc1ccccc1 [NEFAZODONE] | 0.19 | 7.1 | 0.4
CCCCc1nc(Cl)c(CO)n1Cc1ccc(-c2ccccc2-c2nn[nH]n2)cc1 [LOSARTAN] | 0.36 | 7.3 | –
Nc1c(CC(=O)O)cccc1C(=O)c1ccc(Br)cc1 [BROMFENAC] | 0.67 | 1.3 | 0.0022
O=C(c1ccccc1)c1ccc2n1CCC2C(=O)O (stereo not given) [KETOROLAC] | 1 | 0.2 | –
Nc1nc(=O)[nH]cc1F [FLUCYTOSINE] | 0.84 | 0.02 | –
CCCC(=O)Nc1ccc(OCC(O)CNC(C)C)c(C(C)=O)c1 (stereo not given) [ACEBUTOLOL] | 0.5 | – | –
C=CC1=C(C(=O)O)N2C(=O)[C@@H](NC(=O)/C(=N\OCC(=O)O)c3csc(N)n3)[C@H]2SC1 [CEFIXIME] | 0.47 | 0.6 | 0.4
Nc1nc2c(ncn2CCC(CO)CO)c(=O)[nH]1 [PENCICLOVIR] | 0.05 | 1.7 | –
CCOC(=O)C1=C(C)NC(C)=C(C(=O)OC)C1c1cccc(Cl)c1Cl (stereo not given) [FELODIPINE] | 0.16 | – | –
CCOc1ccccc1OC(c1ccccc1)C1CNCCO1 (stereo not given) [REBOXETINE] | 0.95 | 0.8 | 0.041
CCOc1ccccc1OCCN[C@H](C)Cc1ccc(OC)c(S(N)(=O)=O)c1 [TAMSULOSIN] | 1 | 0.5 | 0.1
Cc1ccc(-c2nc3ccc(C)cn3c2CC(=O)N(C)C)cc1 [ZOLPIDEM] | 0.72 | 4.3 | 0.043
CN(C)c1ccc(O)c2c1C[C@H]1C[C@H]3[C@H](N(C)C)C(O)=C(C(N)=O)C(=O)[C@@]3(O)C(O)=C1C2=O [MINOCYCLINE] | 1 | 1.1 | 0.1
COc1ccc2[nH]c([S+]([O-])Cc3ncc(C)c(OC)c3C)nc2c1 (stereo not given) [OMEPRAZOLE] | 0.53 | 8.3 | 0.1
O=C(c1ccc(F)cc1)C1CCN(CCn2c(=O)[nH]c3ccccc3c2=O)CC1 [KETANSERIN] | 0.5 | 6.6 | 0.1
COC(=O)C1=C(C)NC(C)=C(C(=O)OC)C1c1ccccc1[N+](=O)[O-] [NIFEDIPINE] | 0.5 | – | –

SMILES | F_fraction (Homo sapiens [1]) | CL (Homo sapiens [2]) [mL/min/kg] | CL renal (clinical) [mL/min/kg]
O=C(NCCNCC(O)COc1ccc(O)cc1)N1CCOCC1 (stereo not given) [XAMOTEROL] | 0.05 | 1.1 | –
CC(C)NCC(O)c1ccc(NS(C)(=O)=O)cc1 (stereo not given) [SOTALOL] | 0.95 | 0.3 | –
Cc1c(OCC(F)(F)F)ccnc1C[S+]([O-])c1nc2ccccc2[nH]1 (stereo not given) [LANSOPRAZOLE] | 0.85 | 4.4 | 0.044
C[C@H](CS)C(=O)N1CCC[C@H]1C(=O)O [CAPTOPRIL] | 0.62 | – | –
CNS(=O)(=O)Cc1ccc2[nH]cc(CCN(C)C)c2c1 | 0.14 | 15.3 | –
NCC1(CC(=O)O)CCCCC1 [GABAPENTIN] | 0.6 | – | –
O=C1C(CC[S+]([O-])c2ccccc2)C(=O)N(c2ccccc2)N1c1ccccc1 (stereo not given) [SULFINPYRAZONE] | 0.93 | – | –
CC[C@H]1OC(=O)[C@H](C)[C@@H](O[C@H]2C[C@@](C)(OC)[C@@H](O)[C@H](C)O2)[C@H](C)[C@@H](O[C@@H]2O[C@H](C)C[C@H](N(C)C)[C@H]2O)[C@](C)(O)C[C@@H](C)C(=O)[C@H](C)[C@@H](O)[C@]1(C)O [ERYTHROMYCIN] | 0.35 | 5.3 | 0.3
CN(C)Cc1nnc2n1-c1ccc(Cl)cc1C(c1ccccc1)=NC2 [ADINAZOLAM] | 0.39 | 3.6 | –
C[C@H]1COc2c(N3CCN(C)CC3)c(F)cc3c(=O)c(C(=O)O)cn1c23.C[C@H]1COc2c(N3CCN(C)CC3)c(F)cc3c(=O)c(C(=O)O)cn1c23.O [LEVOFLOXACIN] | 0.99 | 0.5 | –
CC(C)Cc1ccc(C(C)C(=O)O)cc1 (stereo not given) [IBUPROFEN] | 0.95 | – | –
CCCN(CCC)S(=O)(=O)c1ccc(C(=O)O)cc1 [PROBENECID] | 1 | 0.2 | –
C[C@@H]1CN(c2c(F)c(N)c3c(=O)c(C(=O)O)cn(C4CC4)c3c2F)C[C@H](C)N1 [SPARFLOXACIN] | 0.92 | 2.3 | –
N[C@@H](C(=O)N[C@@H]1C(=O)N2C(C(=O)O)=C(CSc3c[nH]nn3)CS[C@H]12)c1ccc(O)cc1 [CEFATRIZINE] | 0.75 | 0.7 | –
NS(=O)(=O)c1cc2c(cc1C(F)(F)F)NCNS2(=O)=O [HYDROFLUMETHIAZIDE] | – | 0.7 | 9
CCCCCN(CCCOC)C(=O)[C@@H](CCC(=O)O)NC(=O)c1ccc(Cl)c(Cl)c1 [DEXLOXIGLUMIDE] | – | 3.3 | 0.4
O=C1CN=C(c2ccccc2Cl)c2cc([N+](=O)[O-])ccc2N1 [CLONAZEPAM] | – | 0.9 | 0.0088
CC(=O)CC(c1ccccc1)c1c(O)c2ccccc2oc1=O (stereo not given) [WARFARIN] | – | 0.1 | 0.0011
O=C(O)CCCc1ccc(N(CCCl)CCCl)cc1 [CHLORAMBUCIL] | – | 2.8 | 0.028
CC(=O)N[C@H]1[C@H]([C@H](O)[C@H](O)CO)OC(C(=O)O)=C[C@@H]1N=C(N)N [ZANAMIVIR] | 0.03 | 0.2 | –
CCCCCNC(=N)N/N=C/c1c[nH]c2ccc(OC)cc12 [TEGASEROD] | – | 17.6 | 0.4
Cn1c(=O)c2c(ncn2C)n(C)c1=O [CAFFEINE] | – | 1.4 | 0.017
